Assay results published in patent US8663690B2, “Method for nanoencapsulation” (William Marsh Rice University, priority 2006, dated 2014).

Assay: UV-vis spectroscopy estimate of lutein-ester dissolved in ethanol
Format: physicochemical
Settings: ethanol at 60° C., estimated from UV-vis spectroscopy; rest undissolved particles
Description: A suspension of lutein-ester (Blue California, Co.) was prepared by dissolving lutein-ester powder in ethanol at 60° C. under stirring. It is estimated from UV-vis spectroscopy that 20.0 wt % lutein-ester dissolves in ethanol at 60° C., and the rest are in the form of undissolved nanoparticles, mesoparticles, and microparticles. A solution of gum arabic (Sigma) was prepared by dissolving gum arabic in deionized water (18.2 Mega-Ohm·cm) at 60° C. under stirring until the gum arabic was completely dissolved and a clear solution was obtained.

fraction of lutein-ester that dissolves in ethanol: 20.0 wt %
Substance: lutein-ester
